# Test results reported in ChEMBL document CHEMBL4622966, “Synthesis of Novel Ciprofloxacin-Based Hybrid Molecules toward Potent Antimalarial Activity” (ACS Med Chem Lett, 2020).
# Activity calls are given as the source filed them. No cut-off for these calls is given here.
# How the values were obtained:
# Plasmodium falciparum [1] = experiment: Antimalarial activity against CQ-resistant Plasmodium falciparum NF54-R assessed as inhibition of parasite growth; format: functional, organism-based
# Plasmodium falciparum [2] = experiment: Antimalarial activity against CQ-sensitive Plasmodium falciparum 3D7 assessed as inhibition of parasite growth; format: functional, organism-based
# Plasmodium falciparum [3] = experiment: Antimalarial activity against Plasmodium falciparum infected in human erythrocytes assessed as parasitemia at 1 to 15 uM after 48 hrs by SYBR Green1 dye based fluorescence assay; format: functional, organism-based
# Plasmodium falciparum [4] = experiment: Antimalarial activity against CQ-resistant Plasmodium falciparum W2 infected in human erythrocytes after 48 hrs by SYBR Green1 dye based fluorescence assay; format: functional, organism-based; conditions: W2, 48 h
# Plasmodium falciparum [5] = experiment: Antimalarial activity against CQ-resistant Plasmodium falciparum W2 infected in human erythrocytes after 96 hrs by SYBR Green1 dye based fluorescence assay; format: functional, organism-based; conditions: W2, 96 h
# Plasmodium falciparum [6] = experiment: Binding affinity to Gyrase in Plasmodium falciparum assessed as accumulation of single-stranded DNA binding protein at 15 uM after 96 hrs by Western blot analysis
# Plasmodium falciparum [7] = experiment: Antimalarial activity against CQ-sensitive Plasmodium falciparum 3D7 infected in human erythrocytes after 48 hrs by SYBR Green1 dye based fluorescence assay; format: functional, organism-based; conditions: 3D7, 48 h
# Plasmodium falciparum [8] = experiment: Antimalarial activity against Plasmodium falciparum infected in human erythrocytes assessed as parasitemia at 1 to 15 uM after 96 hrs by SYBR Green1 dye based fluorescence assay; format: functional, organism-based
# Heme [9] = experiment: Binding affinity to monomeric heme at 100 nM to 4.5 uM after 24 hrs by UV-Visible Spectroscopic analysis
# Plasmodium falciparum [10] = experiment: Antimalarial activity against CQ-sensitive Plasmodium falciparum 3D7 infected in human erythrocytes after 96 hrs by SYBR Green1 dye based fluorescence assay; format: functional, organism-based; conditions: 3D7, 96 h
# [11] = Lipophilicity, log P of the compound; format: physicochemical; conditions: octanol/water
# Erythrocyte [12] = experiment: Hemolytic activity against human RBC infected with CQ-sensitive Plasmodium falciparum 3D7 at 10 to 45 uM; format: ADME, cell-based
# Erythrocyte [13] = experiment: Hemolytic activity against uninfected human RBC at 10 to 45 uM; format: ADME, cell-based
# Erythrocyte [14] = experiment: Hemolytic activity against human RBC infected with CQ-resistant Plasmodium falciparum W2 at 10 to 45 uM; format: ADME, cell-based
# Plasmodium falciparum [15] = experiment: Potency index, ratio of ciprofloxacin IC50 to test compound IC50 for antimalarial activity against CQ-resistant Plasmodium falciparum W2 infected in human erythrocytes after 48 hrs by SYBR Green1 dye based fluorescence assay; format: functional
# Plasmodium falciparum [16] = experiment: Potency index, ratio of chloroquine IC50 to test compound IC50 for antimalarial activity against CQ-resistant Plasmodium falciparum W2 infected in human erythrocytes after 48 hrs by SYBR Green1 dye based fluorescence assay; format: functional
# Plasmodium falciparum [17] = experiment: Potency index, ratio of ciprofloxacin IC50 to test compound IC50 for antimalarial activity against CQ-resistant Plasmodium falciparum W2 infected in human erythrocytes after 96 hrs by SYBR Green1 dye based fluorescence assay; format: functional
# Plasmodium falciparum [18] = experiment: Potency index, ratio of ciprofloxacin IC50 to test compound IC50 for antimalarial activity against CQ-sensitive Plasmodium falciparum 3D7 infected in human erythrocytes after 96 hrs by SYBR Green1 dye based fluorescence assay; format: functional
# Plasmodium falciparum [19] = experiment: Potency index, ratio of ciprofloxacin IC50 to test compound IC50 for antimalarial activity against CQ-sensitive Plasmodium falciparum 3D7 infected in human erythrocytes after 48 hrs by SYBR Green1 dye based fluorescence assay; format: functional
# Plasmodium falciparum [20] = experiment: Resistance index, ratio of IC50 for antimalarial activity against CQ-resistant Plasmodium falciparum W2 infected in human erythrocytes after 48 hrs to IC50 for antimalarial activity against CQ-sensitive Plasmodium falciparum 3D7 infected in human erythrocytes after 48 hrs by SYBR Green1 dye based fluorescence assay; format: functional
# Heme [21] = experiment: Binding affinity to monomeric heme after 24 hrs by UV-Visible Spectroscopic analysis
# Plasmodium falciparum [22] = experiment: Antiplasmodial activity against Plasmodium falciparum infected in human erythrocytes assessed as reduction in hemozoin size at 30 nM after 48 hrs by giemsa staining based light microscopic analysis; format: functional, organism-based
# Plasmodium falciparum [23] = experiment: Antiplasmodial activity against Plasmodium falciparum infected in human erythrocytes assessed as reduction in hemozoin size at 50 to 100 nM after 48 hrs by giemsa staining based light microscopic analysis; format: functional, organism-based
# Plasmodium falciparum [24] = experiment: Antimalarial activity against synchronized ring stage of Plasmodium falciparum infected in human erythrocytes at 50 to 100 nM; format: functional, organism-based
# NIH3T3 = experiment: Cytotoxicity against mouse NIH/3T3 cells up to 10 uM after 72 hrs by MTT assay; format: cell-based; conditions: nih3t3, 72 h
# Plasmodium falciparum [25] = experiment: Antimalarial activity against Plasmodium falciparum infected in human erythrocytes assessed as parasitemia at 1 to 10 nM after 48 hrs by SYBR Green1 dye based fluorescence assay; format: functional, organism-based
# Plasmodium falciparum [26] = experiment: Antimalarial activity against synchronized schizont stage of Plasmodium falciparum infected in human erythrocytes at 50 to 100 nM; format: functional, organism-based
# Plasmodium falciparum [27] = experiment: Binding affinity to Gyrase in Plasmodium falciparum assessed as accumulation of single-stranded DNA binding protein at 25 nM after 96 hrs by Western blot analysis
# Escherichia coli = experiment: Toxicity in Escherichia coli DH10B assessed as growth inhibition at 500 nM to 1 uM after 6 hrs; format: organism-based, str. K-12 substr. DH10B; conditions: in vivo, 0.5 µM
# Plasmodium falciparum [28] = experiment: Antimalarial activity against Plasmodium falciparum infected in human erythrocytes assessed as parasitemia at 1 to 10 nM after 96 hrs by SYBR Green1 dye based fluorescence assay; format: functional, organism-based
SMILES,IC50 (Plasmodium falciparum [1]),IC50 (Plasmodium falciparum [2]),IC50 (Plasmodium falciparum [4]),IC50 (Plasmodium falciparum [5]),IC50 (Plasmodium falciparum [7]),IC50 (Plasmodium falciparum [10]),logP [11],Activity (Erythrocyte [12]),Activity (Erythrocyte [13]),Activity (Erythrocyte [14]),also measured
Cc1c(F)c(N2CCNC(C)C2)cc2c1c(=O)c(C(=O)O)cn2C1CC1 (stereo not given) [GREPAFLOXACIN],> 10000 nM,> 10000 nM,,,,,,,,,
O=C(O)c1cn(C2CC2)c2cc(N3CCNCC3)c(F)cc2c1=O [CIPROFLOXACIN],,,37100 nM,22800 nM,45400 nM,26300 nM,,,,,Activity (Plasmodium falciparum [3]): inactive; Activity (Plasmodium falciparum [6]): Active; Activity (Plasmodium falciparum [8]): Active; Activity (Heme [9]): inactive
CCOC(=O)c1cn(C2CC2)c2cc(N3CCN(c4c5ccc(Cl)cc5nc5ccc(OC)cc45)CC3)c(F)cc2c1=O,,,,,359 nM,311 nM,6.31,Non-Toxic,Non-Toxic,Non-Toxic,
COc1c(N2C[C@@H]3CCCN[C@@H]3C2)c(F)cc2c(=O)c(C(=O)O)cn(C3CC3)c12 [MOXIFLOXACIN],> 10000 nM,> 10000 nM,,,,,,,,,
CCOC(=O)c1cn(C2CC2)c2cc(N3CCN(C(=O)/C=C/c4ccccc4)CC3)c(F)cc2c1=O,,,,,9110 nM,4790 nM,3.81,Non-Toxic,Non-Toxic,Non-Toxic,
CCOC(=O)c1cn(C2CC2)c2cc(N3CCN(S(=O)(=O)c4ccc(C(F)(F)F)cc4)CC3)c(F)cc2c1=O,,,146 nM,33.4 nM,37.6 nM,14.8 nM,4.29,Non-Toxic,Non-Toxic,Non-Toxic,Ratio IC50 (Plasmodium falciparum [15]): 200 - 700; Ratio IC50 (Plasmodium falciparum [16]): 7; Ratio IC50 (Plasmodium falciparum [17]): 200 - 700; Ratio IC50 (Plasmodium falciparum [18]): 1000; Ratio IC50 (Plasmodium falciparum [19]): 1000; Ratio IC50 (Plasmodium falciparum [20]): 3.88
CCN(CC)CCCC(C)Nc1ccnc2cc(Cl)ccc12 (stereo not given),,,,,,,,,,,Activity (Heme [21]): Dose-dependent effect; Activity (Plasmodium falciparum [22]): Active
CCOC(=O)c1cn(C2CC2)c2cc(N3CCN(c4ccnc5cc(Cl)ccc45)CC3)c(F)cc2c1=O,,,63.2 nM,30.6 nM,25.5 nM,13.5 nM,5.02,Non-Toxic,Non-Toxic,Non-Toxic,Ratio IC50 (Plasmodium falciparum [15]): 200 - 700; Activity (Plasmodium falciparum [23]): inactive; Activity (Plasmodium falciparum [24]): Active; Activity (NIH3T3): Non-Toxic; Ratio IC50 (Plasmodium falciparum [16]): 3; Activity (Plasmodium falciparum [25]): Active; Activity (Plasmodium falciparum [26]): Active; Activity (Plasmodium falciparum [27]): inactive; Ratio IC50 (Plasmodium falciparum [17]): 200 - 700; Activity (Escherichia coli): Non-Toxic; Ratio IC50 (Plasmodium falciparum [18]): 1000; Ratio IC50 (Plasmodium falciparum [19]): 1000; Ratio IC50 (Plasmodium falciparum [20]): 2.47; Activity (Plasmodium falciparum [28]): Active; Activity (Heme [9]): inactive
COc1c(N2CCNC(C)C2)c(F)cc2c(=O)c(C(=O)O)cn(C3CC3)c12 (stereo not given) [GATIFLOXACIN],> 10000 nM,> 10000 nM,,,,,,,,,
